In PubChem BioAssay (NCI):
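Briefly, cells in 96-well plates were exposed to five compound concentrations for 48 h, and endpoints were estimated by linear interpolation. TGI is the concentration that stops growth completely.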

Key:
Experiment in all cases: DTP human tumour cell line panel, 48 h
DMS 114 small cell lung = system: DMS 114 small cell lung
DLD-1 colon = system: DLD-1 colon
DMS 273 small cell lung = system: DMS 273 small cell lung
XF 498 CNS = system: XF 498 CNS
RXF-631 renal = system: RXF-631 renal

Measured: TGI

CC1OC(OC2C(Oc3cc(O)c4c(=O)cc(-c5ccc(O)cc5)oc4c3)OC(CO)C(O)C2O)C(O)C(O)C1O (configuration not stated)
> 100 µM: DMS 114 small cell lung | DLD-1 colon | DMS 273 small cell lung | XF 498 CNS

O=C(c1ccc(Cl)cc1)N(C(=S)N1CCN(c2ccccc2)CC1)c1ccccc1
> 100 µM: DLD-1 colon | DMS 273 small cell lung

Cc1ccc(S(=O)(=O)OCC23CCC(C4CC42)C2CC23)cc1 (configuration not stated)
> 100 µM: RXF-631 renal | DMS 114 small cell lung | DLD-1 colon | DMS 273 small cell lung

CCCN(CCC)C(=O)Cc1c2n(c3ccccc13)Cc1ccccc1-2
> 100 µM: DMS 114 small cell lung | DLD-1 colon | DMS 273 small cell lung | XF 498 CNS

CCCC(=O)N[C@@H](Cc1cc(I)c(O)c(I)c1)C(=O)NCCCNCCCCNCCCNC(=O)[C@@H](N)CCCN=C(N)N
> 100 µM: DMS 114 small cell lung | DMS 273 small cell lung | XF 498 CNS
